The values below come from paper PMC9400670, “Establishing the selective phospholipid membrane coordination, permeation and lysis properties for a series of ‘druggable’ supramolecular self-associating antimicrobial amphiphiles” (Chemical Science, 2022).

Structures are written as SMILES. Where two headings read alike, the source gives them in different places.

The subject of one data set is MRSA USA300. To be noted: n = 3, 0.5 McFarland standard, after 900 min, number in bracket = efficacy rank; cited from earlier work.
For another data set, the system named is PG lipid vesicles. As to the kind of experiment: Synthetic phospholipid vesicle membrane binding assay (fluorescence polarisation), PG vesicles. The conditions noted are these: lipid vesicles added to SSA (0.15 mM); n = 3; error = standard error; SSA alone set to 100 mP. As to the method: (§1) For intrinsically fluorescent SSAs 5, 6 and 8–12, FP titration experiments enabled the observation of SSA: phospholipid vesicle interactions. Here, an increase in FP value indicates an increase in the apparent size of the SSA as it interacts with the phospholipid vesicle. […]
(§2) Fluorescence polarisation: Lipid films were resuspended in Buffer (150 mM KCl, 10 mM HEPES, pH 7.4, 2 mM EGTA) and subjected to 9 freeze-thaw cycles in liquid nitrogen and extruded 20 times through a 200 nm polycarbonate membrane. Black bottom 96-well plates were prepared by serially diluting desired vesicle solution across the plate, the appropriate SSA solution (100 µL, 0.15 mM) was added to each well to give a total well volume of 200 µL. Fluorescent SSA solutions were set to a FP value of 100 mP. Data were acquired in endpoint mode. […]

The subject of data set [1] is E. coli polar lipid vesicles. The data set can be described thus: Synthetic phospholipid vesicle membrane binding assay (fluorescence polarisation), E. coli polar vesicles. The conditions noted are these: lipid vesicles added to SSA (0.15 mM); n = 3; error = standard error; SSA alone set to 100 mP. As to the method: as §1, §2
In a further data set the test system is PG nanodiscs. As to the kind of experiment: Phospholipid nanodisc 1H NMR CPMG coordination assay, PG nanodiscs. The conditions noted are these: SSA 100 µM. Type of data set: binding. An excerpt: Finally, to establish how any single SSA structural variation affects the coordination of an individual salt component to the surface of a phospholipid membrane, the binding of the anionic and cationic components of SSAs 5–12 with nanodiscs comprised of PC, PG or the PE : PG mix (Table 2) was studied. Nanodiscs were synthesised from synthetic vesicles of the relevant phospholipid composition. For full synthetic procedures and nanodisc characterisation please see ESI (Section 13). ^†[34,35]
Styrene-maleic acid (SMA) nanodiscs are small biomimetic scaffolds with a hydrodynamic diameter ≈ 10 nm. They consist of a single disc-shaped planar phospholipid bilayer, ‘belted’ in this instance with a synthetic SMA co-polymer. Here nanodiscs of a specific phospholipid composition were titrated against a solution of SSAs 5–12 (0.10 mM) in a sodium phosphate buffer (20 mM) with NaCl (20 mM) at pH 7.4. This solution was supplemented with 5% D2O, to enable NMR locking and 4,4-dimethyl4-silapentane-1-sulfonic acid (DSS – 0.02 mM) to act as an internal standard. The nanodiscs were then titrated against the SSA, while the SSA concentration was maintained as constant, well below the CMC (Table 3).[38] A 1D ^1H NMR with a Carr–Purcell–Meiboom–Gill sequence (CPMG) filter (300 ms),[36,48] modified with a watergate element was then obtained for each experimental data point. The watergate element was used to allow suppression of the water signal, whereas the CPMG filter enabled the suppression of those resonances from molecular species with long correlation times, which in this instance correlate to the signals of those SSAs coordinated to the nanodisc, rather than those which exist as free species in solution. Comparative integration of the resonances corresponding to the SSA cation or anion, standardised against the DSS internal standard, permits the percentage of the individual SSA components coordinated to the phospholipid nanodisc to be established with respect to increasing nanodisc concentration.
However, when considering the 1/EC50 for the SSA cationic component (Fig. 10b), the reverse is true. This is perhaps expected, but nevertheless despite the identical experimental conditions, including the same TBA counter cation across SSAs 5–12, there is a marked difference in the 1/EC50 obtained, where the only difference is the SSA anion present. This is most noticeable for the series of SSA titrations involving the PE : PG mix (Table 2) nanodiscs. The only variation within this set of titrations is the structure of the SSA anion; we therefore conclude that the SSA anion is influencing SSA cation nanodisc coordination events. This observation provides evidence for the presence of further complex interactions informing SSA:nanodisc coordination processes. […]
Data were acquired in endpoint mode. All experiments were repeated in triplicate […]
Nanodisc preparation: Lipid films were resuspended in Buffer (20 mM NaCl, 20 mM NaH 2PO4, pH 7.4) and sonicated for 1 hour, at a 5:1 ratio, SMA was added and incubated at 37 °C for 1 hour. Dialysed overnight in 5 L of the same buffer in 10 KDa cut-off dialysis tubing, concentrated, and underwent gel filtration size exclusion chromatography on a Superdex 200 10/300 GL column (GE Healthcare) in the same buffer, whilst monitoring absorbance at 260 nm. Nanodisc quantification carried out via monitoring of absorbance at 260 nm using a calibration curve.2
1H NMR CPMG: 1H NMR CPMG3,4 spectra were obtained with a Bruker Avance III […] spectrometer equipped with a TCIP cryoprobe at 298 K. Samples were supplemented with 5 % D 2O and 0.02 mM 4,4-dimethyl4-silapentane-1-sulfonic acid (DSS). The standard zgprcpmg pulse sequence from the Bruker library was modified with a watergate element to allow suppressi on of the water signal and was used for all experiments. Although this sequence is readily obtainable, we are happy to provide it on request. The P1 pulses were 9 µs at a power of 7.9 W. Presaturation was applied between […]

In data set [2] the test system is calcein loaded phospholipid vesicles (PC, PG, PE-PG mix, E. coli total, E. coli polar). As to the kind of experiment: Synthetic phospholipid vesicle lysis (calcein leakage) assay. The conditions noted are these: SSA titration; concentrations ≤0.5 mM; after 15 min; in words.
Data set [3] can be described thus: Critical micelle concentration from surface tension measurements (pendant drop). The data set is classed as physicochemical. To be noted: 19 : 1 H2O : EtOH solution at 298 K. An excerpt:
Section 2: General Methods
General remarks: A positive pressure of nitrogen and oven dried glassware were used for all reactions.
All solvents and starting materials were purchased from known chemical suppliers or available stores and used without any further purification unless specifically stipulated. The NMR spectra were obtained using a Burker AV2 400 MHz, AVNEO 400 MHz or Avance III […] spectrometer. The data was processed using ACD Labs or MestreNova software. NMR Chemical shift values are reported in parts per million (ppm) and calibrated to the centre of the residual solvent peak set (s = singlet, br = broad, d = doublet, t = triplet, q = quartet, m = multiplet). Fluorescence and fluorescence polarisation measurements were conducted using a Clariostar plate reader and analysed using MARS data analysis […]
Tensiometry Studies: All the samples were prepared in an EtOH:H2O (1:19) solution. All samples underwent an annealing process in which the various solutions were heated to approximately 40 °C before being allowed to cool to room temperature, allowing each sample to reach a thermodynamic minimum. All samples were prepared through serial dilution of the most concentrated sample. Three surface tension measurements were obtained for each sample at a given concentration, using the […]
pendant drop method. […]
Data

Where [4] appears, read: concentration of nanodisc coordinating 50 % of the SSA anion, Hill Plot fit, Vmax fixed 100 %, read-out: EC50 PG, anionic SSA component.
The mark [5] stands for this setting: concentration of nanodisc coordinating 50 % of the SSA cation, Hill Plot fit, Vmax fixed 100 %, read-out: EC50 PG, cationic SSA component.

As to `O=C(NCS(=O)(=O)O)Nc1ccc(C(F)(F)F)cc1` [SSA 1], the “MIC50 MRSA” value in the data set with MRSA USA300 was 0.46(2) mM.
With `O=C(NCS(=O)(=O)O)Nc1ccc(C(F)(F)F)cc1` [SSA 3], the “MIC50 MRSA” value in the data set on MRSA USA300 is recorded as 0.35(1) mM.
Turning to `O=C(O)CNC(=O)Nc1ccc(C(F)(F)F)cc1` [SSA 4], the “MIC50 MRSA” value in the data set on MRSA USA300 is listed as 1.14(6) mM.
In the case of `O=C(NCS(=O)(=O)O)Nc1ccccc1-c1nc2ccccc2s1` [SSA 5], the “increase in FP, PG” value with PG lipid vesicles turned out to be 43 ± 9 mP. The “increase in FP, E. coli polar” value in data set [1] came out at 40 ± 4 mP. The EC50 in the data set with PG nanodiscs (experimental endpoint 4.00 µM nanodisc, read-out: EC50 PG, cationic SSA component) is over 4000 nM. Besides, the “MIC50 MRSA” value in the data set with MRSA USA300 is on record as 0.99(5) mM. For the same molecule, the “vesicle lysis PG over PC” value in data set [2] was “enhanced levels of vesicle lysis against PG”.
For the molecule `Cc1ccc2nc(-c3ccc(NC(=O)NCS(=O)(=O)O)cc3)sc2c1` [SSA 6], in the data set on PG lipid vesicles, the “increase in FP, PG” value turned out to be 40 ± 4 mP. The “increase in FP, E. coli polar” value in data set [1] amounted to 35 ± 3 mP. Further, the results for the EC50 with PG nanodiscs (setting [4]) and in the data set on PG nanodiscs (setting [5]) were 820 nM and 2860 nM, respectively. For the same molecule, the “MIC50 MRSA” value in the data set with MRSA USA300 is 0.93(4) mM. Also, in data set [2], the “vesicle lysis PG over PC” value is “enhanced levels of vesicle lysis against PG”.
As to `Cc1ccc2nc(NC(=O)NCS(=O)(=O)O)sc2c1` [SSA 7], the EC50 in the data set with PG nanodiscs (setting [5]) worked out at 3420 nM.
`O=C(NCS(=O)(=O)O)Nc1ccc(-c2nc3ccccc3s2)cc1` [SSA 8]: the “increase in FP, PG” value with PG lipid vesicles was determined as 29 ± 1 mP. In data set [1], the “increase in FP, E. coli polar” value was determined as 27 ± 2 mP. The CMC in data set [3] (unit printed in Figs S37-S40, not in Table 3, listed as 8) is recorded as 5.2 mM; in data set [3] (unit printed in Figs S37-S40, not in Table 3, listed as compound 8), 5.16 mM. Besides, the EC50 with PG nanodiscs (setting [5]) stood at 3110 nM. Also, the “vesicle lysis PG over PC” value in data set [2] is given as “enhanced levels of vesicle lysis against PG”.
As for `Cc1ccc2nc(-c3ccc(NC(=O)NCCC(=O)O)cc3)sc2c1` [SSA 9], in the data set with PG lipid vesicles, the “increase in FP, PG” value worked out at 47 ± 1 mP. Further, in data set [1], the “increase in FP, E. coli polar” value amounted to 53 ± 3 mP. The CMC in data set [3] (unit printed in Figs S37-S40, not in Table 3, listed as 9) is reported as 1.9 mM; in data set [3] (unit printed in Figs S37-S40, not in Table 3, listed as compound 9) it was 1.92 mM. Further, the EC50 was 1070 nM in the data set on PG nanodiscs (setting [4]) and 2690 nM with PG nanodiscs (setting [5]).
In the case of `Cc1ccc2nc(-c3ccc(NC(=O)NCCCS(=O)(=O)O)cc3)sc2c1` [SSA 10], the “increase in FP, PG” value in the data set on PG lipid vesicles worked out at 29 ± 2 mP. For the same molecule, in data set [1], the “increase in FP, E. coli polar” value is given as 25 ± 14 mP. For the same molecule, the CMC in data set [3] (unit printed in Figs S37-S40, not in Table 3, listed as 10) was 14.8 mM; in data set [3] (unit printed in Figs S37-S40, not in Table 3, listed as compound 10), 14.77 mM. In addition, the EC50 was 500 nM with PG nanodiscs (setting [4]) and 1160 nM in the data set on PG nanodiscs (setting [5]).
Consider `Cc1ccc2nc(-c3ccc(NC(=O)NCC(=O)O)cc3)sc2c1` [SSA 11], for which, in the data set with PG lipid vesicles, the “increase in FP, PG” value came to 209 ± 4 mP. Besides, the “increase in FP, E. coli polar” value in data set [1] was 79 ± 1 mP. In addition, the CMC was found to be 3.0 mM in data set [3] (unit printed in Figs S37-S40, not in Table 3, listed as 11) and 3.03 mM in data set [3] (unit printed in Figs S37-S40, not in Table 3, listed as compound 11). Also, the EC50 with PG nanodiscs (setting [4]) was found to be 2100 nM; with PG nanodiscs (setting [5]), 2820 nM.
Regarding `Cc1ccc2nc(-c3ccc(NC(=S)NCS(=O)(=O)O)cc3)sc2c1` [SSA 12], the “increase in FP, PG” value in the data set on PG lipid vesicles came to 126 ± 5 mP. Moreover, the “increase in FP, E. coli polar” value in data set [1] is on record as 176 ± 2 mP. In data set [3] (unit given in Figs S37-S40, not in Table 3), this molecule registered a CMC of 4.6 mM. Moreover, the EC50 in the data set with PG nanodiscs (setting [4]) was found to be 290 nM; in the data set on PG nanodiscs (setting [5]), 900 nM.
